System: NBD1
Assay: Aggregation analysis of NBD1 thermal stability by differential static light scattering (DSLS)
Type: binding, Human
Conditions: 100 μM compound; ΔTagg versus DMSO control
Protocol: Purified recombinant NBD1 was produced using previously described methods (A. Schmidt, J. L. Mendoza, P. J. Thomas (2011) Biochemical and Biophysical Approaches to Probe CFTR Structure (365-376) M. D. Amaral, K. Kunzelmann (eds.), Cystic Fibrosis, Methods in Molecular Biology 741, Springer Science+Business Media). The effect of test compounds on thermal stability of NBD1 was evaluated by differential static light scattering (DSLS) using the Harbinger Stargazer-384 instrument (Epiphyte Three, Toronto, Canada). Test compounds were dissolved and diluted to desired concentrations in 100% DMSO. The compounds or DMSO controls (100 nL) were stamped into wells of a […] low volume optical plate (Corning Inc., Corning, NY) using the Echo 555 acoustic liquid handler (Labcyte Inc., San Jose, CA).
NBD1 protein was diluted to 0.2 mg/ml in S200 buffer (50 mM Tris-HCl, 150 mM NaCl, 5 mM MgCl2, 2 mM ATP, 2 mM DTT, pH7.6) containing 1% glycerol. 10 uL of protein solution was aliquoted into the 384-well plate harboring the test compounds and 10 uL mineral oil was overlayed onto the protein solution, using the epMotion robotic liquid handler (Eppendorf North America, Hauppauge, NY). After placing into the Stargazer instrument, the plate was heated at 1° C. per minute to 70° C. Images were captured from 25° C. to 70° C. every 0.5° C. At the end of the experiment run, instrument software integrated image files and analyzed data automatically. A […] regression curve was generated for each well, representing the increase in light scattering over time. A temperature of aggregation (Tagg) was calculated based on the inflection point of the curve. To better compare data across experiments the average Tagg for DMSO control wells was calculated and subtracted from values for wells containing compounds to obtain a “ΔTagg” value. These ΔTagg values reflect stabilizing efficacy of the compounds.

Structure (SMILES)	DSLS NBD1/3D Human Stability delta-T (° C.) @ 100 (μM)
Cn1nccc1C(O)c1cnc(-c2cccc(Oc3ccc4[nH]ccc4n3)c2)[nH]1 (stereo not shown) [Compound 33, (2-(3-((1H-pyrrolo[3,2-b]pyridin-5-yl)oxy)phenyl)-1H-imidazol-5-yl)(1-methyl-1H-pyrazol-5-yl)methanol]	C (C: ≤4° C.)
OC(Cc1nccs1)c1cnc(-c2cccc(Oc3ccc4[nH]cnc4c3)c2)[nH]1 (stereo not shown) [Compound 34, 1-(2-(3-((1H-benzo[d]imidazol-5-yl)oxy)phenyl)-1H-imidazol-5-yl)-2-(thiazol-2-yl)ethan-1-ol]	C (C: ≤4° C.)
Cc1ncc(C(O)c2nnc(-c3cccc(Oc4ccc5[nH]cnc5c4)c3)[nH]2)s1 (stereo not shown) [Compound 35, (5-(3-((1H-benzo[d]imidazol-5-yl)oxy)phenyl)-4H-1,2,4-triazol-3-yl)(2-methylthiazol-5-yl)methanol]	C (C: ≤4° C.)
Cc1ncc(C(N)c2nnc(-c3cccc(Oc4ccc5[nH]cnc5c4)c3)[nH]2)s1 (stereo not shown) [Compound 36, (5-(3-((1H-benzo[d]imidazol-5-yl)oxy)phenyl)-4H-1,2,4-triazol-3-yl)(2-methylthiazol-5-yl)methanamine]	C (C: ≤4° C.)
Cc1ncc(C(O)c2nnc(-c3cccc(Oc4ccc5[nH]ccc5c4CO)c3)[nH]2)s1 (stereo not shown) [Compound 37, (5-(3-((4-(hydroxymethyl)-1H-indol-5-yl)oxy)phenyl)-4H-1,2,4-triazol-3-yl)(2-methylthiazol-5-yl)methanol]	B (B: 4-8° C.)
Cc1ncc(C(O)c2nnc(-c3cccc(Oc4ccc5[nH]ccc5c4C(=O)O)c3)[nH]2)s1 (stereo not shown) [Compound 38, 5-(3-(5-(hydroxy(2-methylthiazol-5-yl)methyl)-4H-1,2,4-triazol-3-yl)phenoxy)-1H-indole-4-carboxylic acid]	C (C: ≤4° C.)
Cc1ncc(C(O)c2nnc(-c3cccc(Oc4ccc5[nH]ccc5c4C(N)=O)c3)[nH]2)s1 (stereo not shown) [Compound 39, 5-(3-(5-(hydroxy(2-methylthiazol-5-yl)methyl)-4H-1,2,4-triazol-3-yl)phenoxy)-1H-indole-4-carboxamide]	B (B: 4-8° C.)
OCc1c(Oc2cccc(-c3nnc(C(O)c4cncs4)[nH]3)c2)ccc2[nH]ccc12 (stereo not shown) [Compound 40, (5-(3-((4-(hydroxymethyl)-1H-indol-5-yl)oxy)phenyl)-4H-1,2,4-triazol-3-yl)(thiazol-5-yl)methanol]	B (B: 4-8° C.)
CN(C)CCNC(=O)c1c(Oc2cccc(-c3nnc(C(O)c4cncs4)[nH]3)c2)ccc2[nH]ccc12 (stereo not shown) [Compound 41, N-(2-(dimethylamino)ethyl)-5-(3-(5-(hydroxy(thiazol-5-yl)methyl)-4H-1,2,4-triazol-3-yl)phenoxy)-1H-indole-4-carboxamide]	C (C: ≤4° C.)
O=C(NCC(O)C(F)(F)F)c1c(Oc2cccc(-c3nnc(C(O)c4cncs4)[nH]3)c2)ccc2[nH]ccc12 (stereo not shown) [Compound 42, 5-(3-(5-(hydroxy(thiazol-5-yl)methyl)-4H-1,2,4-triazol-3-yl)phenoxy)-N-(3,3,3-trifluoro-2-hydroxypropyl)-1H-indole-4-carboxamide]	B (B: 4-8° C.)
O=C(O)CCc1ccc(Cc2cnc(-c3cc(Oc4c(F)cc5[nH]ccc5c4F)ccc3F)[nH]2)s1 [Compound 43, 3-(5-((2-(5-((4,6-difluoro-1H-indol-5-yl)oxy)-2-fluorophenyl)-1H-imidazol-5-yl)methyl)thiophen-2-yl)propanoic acid]	A (A: T ≥8° C.)
CC(c1cccc(CCC(=O)O)c1F)c1nc(-c2cc(Oc3c(F)cc4[nH]ccc4c3F)ccc2F)n2ccccc12 (stereo not shown) [Compound 46, 3-(3-(1-(3-(5-((4,6-difluoro-1H-indol-5-yl)oxy)-2-fluorophenyl)imidazo[1,5-a]pyridin-1-yl)ethyl)-2-fluorophenyl)propanoic acid]	C (C: ≤4° C.)
CC(c1cccc(CCC(=O)O)c1F)c1nc(-c2cc(Oc3c(F)cc4[nH]ccc4c3F)ccc2F)n2c1CCCC2 (stereo not shown) [Compound 47, 3-(3-(1-(3-(5-((4,6-difluoro-1H-indol-5-yl)oxy)-2-fluorophenyl)-5,6,7,8-tetrahydroimidazo[1,5-a]pyridin-1-yl)ethyl)-2-fluorophenyl)propanoic acid]	C (C: ≤4° C.)
CC(c1cc(N)n(-c2cc(Oc3c(F)cc4[nH]ccc4c3F)ccc2F)n1)c1cccc(CCC(=O)O)c1F (stereo not shown) [Compound 48, 3-(3-(1-(5-amino-1-(5-((4,6-difluoro-1H-indol-5-yl)oxy)-2-fluorophenyl)-1H-pyrazol-3-yl)ethyl)-2-fluorophenyl)propanoic acid]	B (B: 4-8° C.)
CCOc1cc(C(C)c2cccc(CCC(=O)O)c2F)nn1-c1cc(Oc2c(F)cc3[nH]ccc3c2F)ccc1F (stereo not shown) [Compound 49, 3-(3-(1-(1-(5-((4,6-Difluoro-1H-indol-5-yl)oxy)-2-fluorophenyl)-5-ethoxy-1H-pyrazol-3-yl)ethyl)-2-fluorophenyl)propanoic acid]	B (B: 4-8° C.)
COc1cc(C(C)c2cccc(CCC(=O)O)c2F)nn1-c1cc(Oc2c(F)cc3[nH]ccc3c2F)ccc1F (stereo not shown) [Compound 50, 3-(3-(1-(1-(5-((4,6-difluoro-1H-indol-5-yl)oxy)-2-fluorophenyl)-5-methoxy-1H-pyrazol-3-yl)ethyl)-2-fluorophenyl)propanoic acid]	B (B: 4-8° C.)
CC(C1=NN(c2cc(Oc3c(F)cc4[nH]ccc4c3F)ccc2F)C(=O)C1)c1cccc(CCC(=O)O)c1F (stereo not shown) [Compound 51, 3-(3-(1-(1-(5-((4,6-difluoro-1H-indol-5-yl)oxy)-2-fluorophenyl)-5-oxo-4,5-dihydro-1H-pyrazol-3-yl)ethyl)-2-fluorophenyl)propanoic acid]	B (B: 4-8° C.)
CSc1cc(C(C)c2cccc(CCC(=O)O)c2F)nn1-c1cc(Oc2c(F)cc3[nH]ccc3c2F)ccc1F (stereo not shown) [Compound 52, 3-(3-(1-(1-(5-((4,6-difluoro-1H-indol-5-yl)oxy)-2-fluorophenyl)-5-(methylthio)-1H-pyrazol-3-yl)ethyl)-2-fluorophenyl)propanoic acid]	C (C: ≤4° C.)
CC(c1noc(-c2cc(Oc3c(F)cc4[nH]ccc4c3F)ccc2F)n1)c1cccc(CCC(=O)O)c1F (stereo not shown) [Compound 53, 3-(3-(1-(5-(5-((4,6-difluoro-1H-indol-5-yl)oxy)-2-fluorophenyl)-1,2,4-oxadiazol-3-yl)ethyl)-2-fluorophenyl)propanoic acid]	B (B: 4-8° C.)
Cc1c(Oc2cccc(-c3nn(Cc4cccc(CCC(=O)O)c4)cc3F)c2)c(F)cc2[nH]ccc12 [Compound 54, 3-(3-((4-fluoro-3-(3-((6-fluoro-4-methyl-1H-indol-5-yl)oxy)phenyl)-1H-pyrazol-1-yl)methyl)phenyl)propanoic acid]	B (B: 4-8° C.)
CC(c1cccc(CC(=O)O)c1F)n1cc(F)c(-c2ccc(F)c(Oc3c(F)cc4[nH]ccc4c3S(C)(=O)=O)c2)n1 (stereo not shown) [Compound 55, 2-(2-fluoro-3-(1-(4-fluoro-3-(4-fluoro-3-((6-fluoro-4-(methylsulfonyl)-1H-indol-5-yl)oxy)phenyl)-1H-pyrazol-1-yl)ethyl)phenyl)acetic acid]	A (A: T ≥8° C.)
O=C(O)CCc1cccc(Cc2cc(NCCO)n(-c3cc(Oc4c(F)cc5[nH]ccc5c4F)ccc3F)n2)c1 [Compound 56, 3-(3-((1-(5-((4,6-difluoro-1H-indol-5-yl)oxy)-2-fluorophenyl)-5-((2-hydroxyethyl)amino)-1H-pyrazol-3-yl)methyl)phenyl) propanoic acid]	B (B: 4-8° C.)
O=C(O)CCc1cccc(Cc2cc(N3CCCCC3=O)n(-c3cc(Oc4c(F)cc5[nH]ccc5c4F)ccc3F)n2)c1 [Compound 57, 3-[3-[[1-[5-[(4,6-difluoro-1H-indol-5-yl)oxy]-2-fluoro-phenyl]-5-(2-oxo-1-piperidyl)pyrazol-3-yl]methyl]phenyl]propanoic acid]	C (C: ≤4° C.)
O=C(O)CCc1cccc(Cc2cc(N3CCCC3=O)n(-c3cc(Oc4c(F)cc5[nH]ccc5c4F)ccc3F)n2)c1 [Compound 58, 3-[3-[[1-[5-[(4,6-difluoro-1H-indol-5-yl)oxy]-2-fluoro-phenyl]-5-(2-oxopyrrolidin-1-yl)pyrazol-3-yl]methyl]phenyl]propanoic acid]	C (C: ≤4° C.)
CC(c1cccc(CCC(=O)O)c1F)c1nn(-c2cc(Oc3c(F)cc4[nH]ccc4c3F)ccc2F)c2c1CCC2 (stereo not shown) [Compound 59, 3-[3-[1-[1-[5-[(4,6-difluoro-1H-indol-5-yl)oxy]-2-fluoro-phenyl]-5,6-dihydro-4H-cyclopenta[c]pyrazol-3-yl]ethyl]-2-fluoro-phenyl]propanoic acid]	C (C: ≤4° C.)

From patent US20260242373A1, “NBD1 MODULATORS AND METHODS OF USING THE SAME” (Sionna Therapeutics Inc., priority 2023, published 2026)
